Results taken from PubChem BioAssay (NCI).
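Briefly, cells in 96-well plates were exposed to five compound concentrations for 48 h, and endpoints were estimated by linear interpolation. TGI marks complete inhibition of growth.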

Legend:
Test in all cases: NCI tumour cell line growth inhibition, 48 h
SF-268 CNS = test system: SF-268 CNS
SK-OV-3 ovarian = test system: SK-OV-3 ovarian
HOP-18 NSCLC = test system: HOP-18 NSCLC
SN12K1 renal = test system: SN12K1 renal
RPMI-8226 leukemia = test system: RPMI-8226 leukemia
EKVX NSCLC = test system: EKVX NSCLC
U251 CNS = test system: U251 CNS
LOX IMVI melanoma = test system: LOX IMVI melanoma
MCF7 breast = test system: MCF7 breast
HCT-116 colon = test system: HCT-116 colon
KM20L2 colon = test system: KM20L2 colon
NCI-H23 lung = test system: NCI-H23 lung
IGROV1 ovarian = test system: IGROV1 ovarian
HOP-92 NSCLC = test system: HOP-92 NSCLC
K-562 leukemia = test system: K-562 leukemia
SF-539 CNS = test system: SF-539 CNS
SNB-78 CNS = test system: SNB-78 CNS
OVCAR-4 ovarian = test system: OVCAR-4 ovarian
NCI-H522 lung = test system: NCI-H522 lung
A549 NSCLC = test system: A549 NSCLC
UO-31 renal = test system: UO-31 renal
SK-MEL-5 melanoma = test system: SK-MEL-5 melanoma
A498 renal = test system: A498 renal
HCC-2998 colon = test system: HCC-2998 colon
SNB-19 CNS = test system: SNB-19 CNS
DMS 114 small cell lung = test system: DMS 114 small cell lung
XF 498 CNS = test system: XF 498 CNS
P388 leukemia = test system: P388 leukemia
UACC-62 melanoma = test system: UACC-62 melanoma
M19-MEL melanoma = test system: M19-MEL melanoma
NCI-H226 lung = test system: NCI-H226 lung
KM12 colon = test system: KM12 colon
MOLT-4 leukemia = test system: MOLT-4 leukemia
NCI/ADR-RES ovarian = test system: NCI/ADR-RES ovarian
SNB-75 CNS = test system: SNB-75 CNS
SK-MEL-28 melanoma = test system: SK-MEL-28 melanoma
RXF 393 renal = test system: RXF 393 renal
SN12C renal = test system: SN12C renal
HT29 colon = test system: HT29 colon
DLD-1 colon = test system: DLD-1 colon
P388/ADR leukemia = test system: P388/ADR leukemia
OVCAR-3 ovarian = test system: OVCAR-3 ovarian
CCRF-CEM leukemia = test system: CCRF-CEM leukemia
COLO 205 colon = test system: COLO 205 colon
CAKI-1 renal = test system: CAKI-1 renal
OVCAR-8 ovarian = test system: OVCAR-8 ovarian
SF-295 CNS = test system: SF-295 CNS
SW-620 colon = test system: SW-620 colon
UACC-257 melanoma = test system: UACC-257 melanoma
OVCAR-5 ovarian = test system: OVCAR-5 ovarian
MALME-3M melanoma = test system: MALME-3M melanoma
HOP-62 NSCLC = test system: HOP-62 NSCLC
DMS 273 small cell lung = test system: DMS 273 small cell lung
HL-60(TB) leukemia = test system: HL-60(TB) leukemia
HCT-15 colon = test system: HCT-15 colon
SK-MEL-2 melanoma = test system: SK-MEL-2 melanoma
NCI-H460 lung = test system: NCI-H460 lung

**Q.** With `c1cc2c3c(c1)c1cc4c(cc1c[n+]3CC2)OCO4` as the molecule, how does the TGI (SF-268 CNS) read?
**A.** 5.26 µM

**Q.** What about the TGI (SK-OV-3 ovarian) of the same molecule?
**A.** 97.2 µM

**Q.** What about the TGI (HOP-18 NSCLC) of the same molecule?
**A.** 88.4 µM

**Q.** And the TGI (SN12K1 renal)?
**A.** 12.2 µM

**Q.** And the TGI (RPMI-8226 leukemia)?
**A.** 14 µM

**Q.** What about the TGI (EKVX NSCLC) of the same molecule?
**A.** 14.4 µM

**Q.** And the TGI (U251 CNS)?
**A.** 18.8 µM

**Q.** What about the TGI (LOX IMVI melanoma) of the same molecule?
**A.** > 96.1 µM

**Q.** What about the TGI (MCF7 breast) of the same molecule?
**A.** 30.3 µM

**Q.** And the TGI (HCT-116 colon)?
**A.** 75.9 µM

**Q.** What about the TGI (KM20L2 colon) of the same molecule?
**A.** 49.7 µM

**Q.** And the TGI (NCI-H23 lung)?
**A.** 13.8 µM

**Q.** What about the TGI (IGROV1 ovarian) of the same molecule?
**A.** 63.5 µM

**Q.** What about the TGI (HOP-92 NSCLC) of the same molecule?
**A.** 106 µM

**Q.** What about the TGI (K-562 leukemia) of the same molecule?
**A.** 32.3 µM

**Q.** And the TGI (SF-539 CNS)?
**A.** 15.4 µM

**Q.** And the TGI (SNB-78 CNS)?
**A.** 47.1 µM

**Q.** And the TGI (OVCAR-4 ovarian)?
**A.** 47.7 µM

**Q.** What about the TGI (NCI-H522 lung) of the same molecule?
**A.** 10.1 µM

**Q.** What about the TGI (A549 NSCLC) of the same molecule?
**A.** 10.2 µM

**Q.** And the TGI (UO-31 renal)?
**A.** > 176 µM

**Q.** And the TGI (SK-MEL-5 melanoma)?
**A.** 9.08 µM

**Q.** And the TGI (A498 renal)?
**A.** 14.9 µM

**Q.** What about the TGI (HCC-2998 colon) of the same molecule?
**A.** 10.4 µM

**Q.** And the TGI (SNB-19 CNS)?
**A.** 13.5 µM

**Q.** And the TGI (DMS 114 small cell lung)?
**A.** 9.27 µM

**Q.** And the TGI (XF 498 CNS)?
**A.** 10.9 µM

**Q.** And the TGI (P388 leukemia)?
**A.** 4.22 µM

**Q.** What about the TGI (UACC-62 melanoma) of the same molecule?
**A.** 16 µM

**Q.** What about the TGI (M19-MEL melanoma) of the same molecule?
**A.** 5.21 µM

**Q.** And the TGI (NCI-H226 lung)?
**A.** 4.69 µM

**Q.** And the TGI (KM12 colon)?
**A.** 27.8 µM

**Q.** And the TGI (MOLT-4 leukemia)?
**A.** 9.96 µM

**Q.** What about the TGI (NCI/ADR-RES ovarian) of the same molecule?
**A.** > 225 µM

**Q.** What about the TGI (SNB-75 CNS) of the same molecule?
**A.** 8.09 µM

**Q.** What about the TGI (SK-MEL-28 melanoma) of the same molecule?
**A.** 12.3 µM

**Q.** And the TGI (RXF 393 renal)?
**A.** 32.5 µM

**Q.** And the TGI (SN12C renal)?
**A.** 9.01 µM

**Q.** What about the TGI (HT29 colon) of the same molecule?
**A.** 67 µM

**Q.** What about the TGI (DLD-1 colon) of the same molecule?
**A.** 121 µM

**Q.** And the TGI (P388/ADR leukemia)?
**A.** > 225 µM

**Q.** And the TGI (OVCAR-3 ovarian)?
**A.** 16.2 µM

**Q.** What about the TGI (CCRF-CEM leukemia) of the same molecule?
**A.** 35.8 µM

**Q.** What about the TGI (COLO 205 colon) of the same molecule?
**A.** 19.9 µM

**Q.** What about the TGI (CAKI-1 renal) of the same molecule?
**A.** 120 µM

**Q.** What about the TGI (OVCAR-8 ovarian) of the same molecule?
**A.** 25.3 µM

**Q.** What about the TGI (SF-295 CNS) of the same molecule?
**A.** 13.1 µM

**Q.** What about the TGI (SW-620 colon) of the same molecule?
**A.** 109 µM

**Q.** What about the TGI (UACC-257 melanoma) of the same molecule?
**A.** 13.5 µM

**Q.** What about the TGI (OVCAR-5 ovarian) of the same molecule?
**A.** 24.9 µM

**Q.** What about the TGI (MALME-3M melanoma) of the same molecule?
**A.** 3.88 µM

**Q.** What about the TGI (HOP-62 NSCLC) of the same molecule?
**A.** 15.4 µM

**Q.** What about the TGI (DMS 273 small cell lung) of the same molecule?
**A.** 30.5 µM

**Q.** What about the TGI (HL-60(TB) leukemia) of the same molecule?
**A.** 24.7 µM

**Q.** And the TGI (HCT-15 colon)?
**A.** > 225 µM

**Q.** What about the TGI (SK-MEL-2 melanoma) of the same molecule?
**A.** 9.35 µM

**Q.** And the TGI (NCI-H460 lung)?
**A.** 12.2 µM
